Reference: patent US8785401B2, “Methods for treating diseases having an inflammatory component related to phospholipase A2” (Philadelphia Health & Education Corporation, priority 2005, dated 2014)

Tested on: sPLA2
Settings: CHEC-9 0.4 μM, LY31127 5.0 μM, whole blood, two 90 min periods at 4°

CCc1c(CC(N)=O)c2cc(OCCCP(=O)(O)O)ccc2n1Cc1ccccc1 [LY311727]
comparison of sPLA2 inhibition by the inhibitors alone and in sequence: equally effective inhibitors
